Here are results for 54 compounds from patent publication US12116343B2, “Inhibitors of APOL1 and methods of using same” (Vertex Pharmaceuticals Incorporated, priority 2020, dated 2024).

The target of the assay is T1, G1 APOL1 (Homo sapiens, UniProt O14791, I384M/S342G).
T1 construct: expressed in transfected cells
T1 sequence (O14791 28-398 S342G/I384M): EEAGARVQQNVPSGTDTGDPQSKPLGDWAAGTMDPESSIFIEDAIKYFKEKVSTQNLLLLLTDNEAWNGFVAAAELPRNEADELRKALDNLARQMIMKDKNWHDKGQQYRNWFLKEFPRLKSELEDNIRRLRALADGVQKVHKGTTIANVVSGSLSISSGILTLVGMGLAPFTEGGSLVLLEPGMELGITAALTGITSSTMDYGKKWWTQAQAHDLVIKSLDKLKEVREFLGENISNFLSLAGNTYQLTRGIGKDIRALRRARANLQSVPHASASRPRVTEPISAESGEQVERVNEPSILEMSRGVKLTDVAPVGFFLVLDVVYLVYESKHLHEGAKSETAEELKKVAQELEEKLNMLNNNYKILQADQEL
Put plainly: Acute APOL1 Thallium Assay with inducible stable clones of HEK 293 cells. To be noted: read-out: Thallium Assay (IC50). The format is cell-based. The method in brief: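 Readout: Tl+-triggered fluorescence, FLIPR, reflecting potassium flux through APOL1 pores after cells take up an AM-ester thallium indicator. Cells: HEK T-Rex stable clone G1 DC3.25, APOL1 G1 induced by tetracycline, seeded 26000 per well.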

Setting [1] is: HEK 293 T-Rex cells expressing G1 APOL1.

As a reminder, the IC50 is the concentration at which inhibition is half-maximal.

Where two headings read alike, the source gives them in different places. Bounds are passed on as bounds.

Take `CC1(O)CN(C(=O)[C@H]2C[C@H](c3c(-c4ccc(F)cc4)[nH]c4c(F)cc(F)cc43)C2)C1` [Compound 74]: the IC50 under setting [1] fell in the range of 250 to 1000 nM.
The same measure, in the same setting: next, `CN1CCN(C(=O)CNC(=O)[C@H]2C[C@H](c3c(-c4ccc(F)cc4)[nH]c4c(F)cc(F)cc43)C2)CC1` [Compound 67]: greater than 1000 nM; `NC(=O)CNC(=O)[C@H]1C[C@H](c2c(-c3ccc(F)cc3)[nH]c3c(F)cc(F)cc32)C1` [Compound 1, N-(2-amino-2-oxo-ethyl)-3-[5,7-difluoro-2-(4-fluorophenyl)-1H-indol-3-yl]cyclobutanecarboxamide]: less than 250 nM.
The same measure, in the same setting: the figure for `CN(CC(N)=O)C(=O)[C@H]1C[C@H](c2c(-c3ccc(F)cc3)[nH]c3c(F)cc(F)cc32)C1` [Compound 51] is 250 to 1000 nM; for `NC(=O)C1(NC(=O)[C@H]2C[C@H](c3c(-c4ccc(F)cc4)[nH]c4c(F)cc(F)cc43)C2)CC1` [Compound 56] it is 250 to 1000 nM.
Turning to `O=C(NCC1(O)CCCCC1)[C@H]1C[C@H](c2c(-c3ccc(F)cc3)[nH]c3c(F)cc(F)cc32)C1` [Compound 80], the concentration for half-maximal inhibition (IC50) under setting [1] was greater than 1000 nM.
Regarding `O=C1NCCC1NC(=O)[C@H]1C[C@H](c2c(-c3ccc(F)cc3)[nH]c3c(F)cc(F)cc32)C1` (stereo partly drawn) [Compound 2], the IC50 under setting [1] was less than 250 nM.
On the same count and under the same terms, the figure for `NCC(O)CNC(=O)[C@H]1C[C@H](c2c(-c3ccc(F)cc3)[nH]c3c(F)cc(F)cc32)C1` (stereo partly drawn) [Compound 3] is 250 to 1000 nM; for `Cc1cc(CNC(=O)[C@H]2C[C@H](c3c(-c4ccc(F)cc4)[nH]c4c(F)cc(F)cc43)C2)nn1C` [Compound 73] it is greater than 1000 nM.
For `NC(=O)CNC[C@H]1C[C@@H](c2c(-c3ccc(F)cc3)[nH]c3c(F)cc(F)cc32)C1` [Compound 447], the IC50 (Table 24, Compounds 287 to 465) is less than 250 nM.
Turning to `C[C@@H](NC(=O)[C@H]1C[C@H](c2c(-c3ccc(F)cc3)[nH]c3c(F)cc(F)cc32)C1)C(=O)N(C)C` [Compound 61], under setting [1], the half-maximal inhibitory concentration (IC50) is greater than 1000 nM.
Same read-out and setting: the figure for `CC(C)(O)C1CN(C(=O)[C@H]2C[C@H](c3c(-c4ccc(F)cc4)[nH]c4c(F)cc(F)cc43)C2)C1` [Compound 86] is greater than 1000 nM; for `Cn1cnc(CNC(=O)[C@H]2C[C@H](c3c(-c4ccc(F)cc4)[nH]c4c(F)cc(F)cc43)C2)c1` [Compound 48] it is less than 250 nM; for `CN(CC(C)(C)O)C(=O)[C@H]1C[C@H](c2c(-c3ccc(F)cc3)[nH]c3c(F)cc(F)cc32)C1` [Compound 93] it is greater than 1000 nM.
As for `O=C(NCC1CC(F)(F)C1)[C@H]1C[C@H](c2c(-c3ccc(F)cc3)[nH]c3c(F)cc(F)cc32)C1` [Compound 41], under setting [1], the IC50 is greater than 1000 nM.
Still for that read-out and setting: next, `Cn1ccc(CNC(=O)[C@H]2C[C@H](c3c(-c4ccc(F)cc4)[nH]c4c(F)cc(F)cc43)C2)n1` [Compound 71]: 250 to 1000 nM.
Same read-out and setting: next, `CC(N)(C(=O)NC(=O)[C@H]1C[C@H](c2c(-c3ccc(F)cc3)[nH]c3c(F)cc(F)cc32)C1)C(F)(F)F` (stereo partly drawn) [Compound 60]: greater than 1000 nM; `O=C(NC1(CO)CC1)[C@H]1C[C@H](c2c(-c3ccc(F)cc3)[nH]c3c(F)cc(F)cc32)C1` [Compound 47]: 250 to 1000 nM; `CC(NC(=O)[C@H]1C[C@H](c2c(-c3ccc(F)cc3)[nH]c3c(F)cc(F)cc32)C1)c1ccn[nH]1` (mixture of isomers) [Compound 81]: 250 to 1000 nM.
With `O=C(NC(CO)CF)[C@H]1C[C@H](c2c(-c3ccc(F)cc3)[nH]c3c(F)cc(F)cc32)C1` (stereo partly drawn) [Compound 78], the IC50 under setting [1] was less than 250 nM.
Still for that read-out and setting: the figure for `C[C@H](O)CNC(=O)[C@H]1C[C@H](c2c(-c3ccc(F)cc3)[nH]c3c(F)cc(F)cc32)C1` [Compound 82] is 250 to 1000 nM; for `COCC1(NC(=O)[C@H]2C[C@H](c3c(-c4ccc(F)cc4)[nH]c4c(F)cc(F)cc43)C2)CC1` [Compound 54] it is less than 250 nM.
As for `O=C([C@H]1C[C@H](c2c(-c3ccc(F)cc3)[nH]c3c(F)cc(F)cc32)C1)N1CCC(O)(CO)CC1` [Compound 87], the IC50 under setting [1] was greater than 1000 nM.
As to `NCCCNC(=O)[C@H]1C[C@H](c2c(-c3ccc(F)cc3)[nH]c3c(F)cc(F)cc32)C1` [Compound 4], the IC50 under setting [1] lay in the range of 250 to 1000 nM.
Same read-out and setting: the figure for `NC(=O)C1CCCCN1C(=O)[C@H]1C[C@H](c2c(-c3ccc(F)cc3)[nH]c3c(F)cc(F)cc32)C1` (stereo partly drawn) [Compound 92] is greater than 1000 nM.
For `O=C([C@H]1C[C@H](c2c(-c3ccc(F)cc3)[nH]c3c(F)cc(F)cc32)C1)N(CCO)C1CC1` [Compound 52], under setting [1], the IC50 lay in the range of 250 to 1000 nM.
As for `CC(NC(=O)[C@H]1C[C@H](c2c(-c3ccc(F)cc3)[nH]c3c(F)cc(F)cc32)C1)c1ccn(C)n1` (mixture of isomers) [Compound 75], the IC50 under setting [1] was 250 to 1000 nM.
On the same count and under the same terms, next, `NC(=O)[C@@H]1CCCN1C(=O)[C@H]1C[C@H](c2c(-c3ccc(F)cc3)[nH]c3c(F)cc(F)cc32)C1` [Compound 88]: greater than 1000 nM; `C[C@H](NC(=O)[C@H]1C[C@H](c2c(-c3ccc(F)cc3)[nH]c3c(F)cc(F)cc32)C1)C(=O)N(C)C` [Compound 65]: 250 to 1000 nM.
Same read-out and setting: next, `O=C(NCC1(CO)COC1)[C@H]1C[C@H](c2c(-c3ccc(F)cc3)[nH]c3c(F)cc(F)cc32)C1` [Compound 83]: greater than 1000 nM; `O=C(NCCO)[C@H]1C[C@H](c2c(-c3ccc(F)cc3)[nH]c3c(F)cc(F)cc32)C1` [Compound 46, 3-[5,7-difluoro-2-(4-fluorophenyl)-1H-indol-3-yl]-N-(2-hydroxyethyl)cyclobutanecarboxamide]: less than 250 nM.
On the same count and under the same terms, next, `O=C([C@H]1C[C@H](c2c(-c3ccc(F)cc3)[nH]c3c(F)cc(F)cc32)C1)N1C[C@@H](CO)OCC12CC2` [Compound 57]: greater than 1000 nM; `CC(NC(=O)[C@H]1C[C@H](c2c(-c3ccc(F)cc3)[nH]c3c(F)cc(F)cc32)C1)c1ccnn1C` (mixture of isomers) [Compound 76]: greater than 1000 nM.
With `O=C(CNC(=O)[C@H]1C[C@H](c2c(-c3ccc(F)cc3)[nH]c3c(F)cc(F)cc32)C1)NC1CC1` [Compound 50], the IC50 under setting [1] was greater than 1000 nM.
Same read-out and setting: the figure for `CN(CC1(CO)CC1)C(=O)[C@H]1C[C@H](c2c(-c3ccc(F)cc3)[nH]c3c(F)cc(F)cc32)C1` [Compound 49] is greater than 1000 nM; for `CCNC(=O)[C@@H]1CCCN1C(=O)[C@H]1C[C@H](c2c(-c3ccc(F)cc3)[nH]c3c(F)cc(F)cc32)C1` [Compound 64] it is greater than 1000 nM.
Take `O=C(NC1(CCO)CC1)[C@H]1C[C@H](c2c(-c3ccc(F)cc3)[nH]c3c(F)cc(F)cc32)C1` [Compound 59]: the IC50 under setting [1] fell in the range of 250 to 1000 nM.
For the compound `CC1C[C@H](NC(=O)[C@H]2C[C@H](c3c(-c4ccc(F)cc4)[nH]c4c(F)cc(F)cc43)C2)C(=O)N1` (mixture of isomers) [Compound 84], the IC50 under setting [1] was greater than 1000 nM.
On the same count and under the same terms, next, `O=C(NCC1(O)CCCC1)[C@H]1C[C@H](c2c(-c3ccc(F)cc3)[nH]c3c(F)cc(F)cc32)C1` [Compound 69]: greater than 1000 nM.
Consider `CN1CC(CNC(=O)[C@H]2C[C@H](c3c(-c4ccc(F)cc4)[nH]c4c(F)cc(F)cc43)C2)CC1=O` (stereo partly drawn) [Compound 70], for which the IC50 under setting [1] is greater than 1000 nM.
The same measure, in the same setting: the figure for `CC(=O)NC1CCCN(C(=O)[C@H]2C[C@H](c3c(-c4ccc(F)cc4)[nH]c4c(F)cc(F)cc43)C2)C1` (stereo partly drawn) [Compound 91] is greater than 1000 nM.
`NC(=O)CC1CC(c2c(-c3ccc(F)cc3)[nH]c3c(F)cc(F)cc23)C1` (stereo not drawn) [Compound 455]: where the note is “Table 24, Compounds 287 to 465”, the IC50 was less than 250 nM.
As to `O=C1CC(NC(=O)[C@H]2C[C@H](c3c(-c4ccc(F)cc4)[nH]c4c(F)cc(F)cc43)C2)CN1` (mixture of isomers) [Compound 44], the IC50 under setting [1] was greater than 1000 nM.
As to `NC(=O)CNCC1CC(c2c(-c3ccc(F)cc3)[nH]c3c(F)cc(F)cc23)C1` (stereo not drawn) [Compound 433, 2-(((3-(5,7-difluoro-2-(4-fluorophenyl)-1H-indol-3-yl)cyclobutyl)methyl)amino)acetamide], for the setting “Table 24, Compounds 287 to 465”, the IC50 was less than 250 nM.
For `O=C(NCC1CCOCC1)[C@H]1C[C@H](c2c(-c3ccc(F)cc3)[nH]c3c(F)cc(F)cc32)C1` [Compound 42], the half-maximal inhibitory concentration (IC50) under setting [1] is greater than 1000 nM.
Still for that read-out and setting: next, `O=C([C@H]1C[C@H](c2c(-c3ccc(F)cc3)[nH]c3c(F)cc(F)cc32)C1)N1CCCCC1CCO` (stereo partly drawn) [Compound 94]: greater than 1000 nM; `CC(O)CN(C)C(=O)[C@H]1C[C@H](c2c(-c3ccc(F)cc3)[nH]c3c(F)cc(F)cc32)C1` (stereo partly drawn) [Compound 90]: greater than 1000 nM; `O=C(OC1CN(C(=O)[C@H]2C[C@H](c3c(-c4ccc(F)cc4)[nH]c4c(F)cc(F)cc43)C2)C1)C1CCOCC1` [Compound 85]: 250 to 1000 nM.
On the same count and under the same terms, next, `CN(C(=O)[C@H]1C[C@H](c2c(-c3ccc(F)cc3)[nH]c3c(F)cc(F)cc32)C1)C1(CO)CC1` [Compound 58]: 250 to 1000 nM; `CN(CCO)C(=O)[C@H]1C[C@H](c2c(-c3ccc(F)cc3)[nH]c3c(F)cc(F)cc32)C1` [Compound 79]: less than 250 nM; `COCc1cc(CNC(=O)[C@H]2C[C@H](c3c(-c4ccc(F)cc4)[nH]c4c(F)cc(F)cc43)C2)n[nH]1` [Compound 72]: greater than 1000 nM.
Same read-out and setting: the figure for `CC(C)(NC(=O)[C@H]1C[C@H](c2c(-c3ccc(F)cc3)[nH]c3c(F)cc(F)cc32)C1)C(=O)N1CCOCC1` [Compound 66] is greater than 1000 nM; for `O=C1NCC[C@H]1NC(=O)[C@H]1C[C@H](c2c(-c3ccc(F)cc3)[nH]c3c(F)cc(F)cc32)C1` [Compound 45] it is 250 to 1000 nM; for `CC(C)N1CCN(C(=O)[C@H]2C[C@H](c3c(-c4ccc(F)cc4)[nH]c4c(F)cc(F)cc43)C2)CC1=O` [Compound 63] it is greater than 1000 nM.
